Results published in PMC11242993, “Evaluation of the Therapeutic Potential of Sulfonyl Urea Derivatives as Soluble Epoxide Hydrolase (sEH) Inhibitors” (Molecules, 2024).

Key:
mouse recombinant sEH = biological target: T1, mouse recombinant sEH (Mus musculus, UniProt P34914); test: Fluorescence-based sEH activity assay (PHOME substrate), mouse enzyme; assay type: biochemical; settings: dose-dependent assay; read-out: Mouse sEH Inhibition IC50
T1 sequence (P34914 1-554): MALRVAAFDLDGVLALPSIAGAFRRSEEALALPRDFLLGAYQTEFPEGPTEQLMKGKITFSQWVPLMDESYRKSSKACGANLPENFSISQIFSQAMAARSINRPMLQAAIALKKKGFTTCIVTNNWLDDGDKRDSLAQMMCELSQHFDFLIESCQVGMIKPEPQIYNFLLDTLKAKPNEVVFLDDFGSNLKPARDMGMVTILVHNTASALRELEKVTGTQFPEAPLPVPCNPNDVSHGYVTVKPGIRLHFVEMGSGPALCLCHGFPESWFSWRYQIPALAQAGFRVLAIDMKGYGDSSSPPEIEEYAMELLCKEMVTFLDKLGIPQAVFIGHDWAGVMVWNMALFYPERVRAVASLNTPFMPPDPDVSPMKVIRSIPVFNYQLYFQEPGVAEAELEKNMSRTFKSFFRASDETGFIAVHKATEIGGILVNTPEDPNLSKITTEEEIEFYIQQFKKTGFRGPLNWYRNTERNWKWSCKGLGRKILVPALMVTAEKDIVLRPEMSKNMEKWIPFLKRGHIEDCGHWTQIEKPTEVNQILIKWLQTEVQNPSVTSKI
Description: (§1) A fluorescence-based sEH activity assay provided a convenient method for screening human epoxide hydrolase inhibitors. The assay utilized (3-Phenyl-oxiranyl)-acetic acid cyano-(6-methoxy-naphthalen-2-yl)-methyl ester (PHOME) as a substrate. […] The inhibitory function of the compounds on sEH activity was tested as detailed in the product manual from Cayman Chemical. Briefly, 3 mL sEH assay buffer (10×) was diluted with 27 mL HPLC-grade water. This final assay buffer, 25 mM bis-tris (pH 7.0), was used in the assay and for the dilution of the soluble epoxide hydrolase (sEH) enzyme. Amounts of 12 μL each of human and mouse recombinant sEH were thawed on ice. Prior to assaying, 588 μL cold assay buffer was added directly to the enzyme vial. An amount of 190 μL assay buffer and 5 μL solvent (40% DMSO in assay buffer) were added to the background wells. In the 100% initial activity wells, 185 μL assay buffer, 5 μL sEH, and 5 μL solvent were added. In inhibitor wells, 185 μL assay buffer, 5 μL solution of the synthesized compounds, and 5 μL of recombinant enzyme solution were added. To start the reaction, 5 μL of PHOME was added to each well at a final concentration of 0.25 mM. The microwell plate was shaken carefully for 10 s and covered with a plate cover.
(§2) Average fluorescence (AF) of the background wells and 100% initial activity in the wells and of each of the inhibitors were determined. The background AF was subtracted from the 100% initial activity and inhibitor AFs. The % sEH activity is calculated as (inhbitited AF/% 100 initial activity) × 100.
(§3) Multiple concentrations of the inhibitors were tested followed by plotting of the percent activity as a function of inhibitor concentration to determine the IC50 values.

human recombinant sEH = biological target: T2, human recombinant sEH (Homo sapiens, UniProt P34913); test: Fluorescence-based sEH activity assay (PHOME substrate), human enzyme; assay type: biochemical; settings: for IC50: dose-dependent assay, read-out: Human sEH Inhibition IC50
T2 construct: purchased Cayman Chemical 10011671
T2 sequence (P34913 1-555): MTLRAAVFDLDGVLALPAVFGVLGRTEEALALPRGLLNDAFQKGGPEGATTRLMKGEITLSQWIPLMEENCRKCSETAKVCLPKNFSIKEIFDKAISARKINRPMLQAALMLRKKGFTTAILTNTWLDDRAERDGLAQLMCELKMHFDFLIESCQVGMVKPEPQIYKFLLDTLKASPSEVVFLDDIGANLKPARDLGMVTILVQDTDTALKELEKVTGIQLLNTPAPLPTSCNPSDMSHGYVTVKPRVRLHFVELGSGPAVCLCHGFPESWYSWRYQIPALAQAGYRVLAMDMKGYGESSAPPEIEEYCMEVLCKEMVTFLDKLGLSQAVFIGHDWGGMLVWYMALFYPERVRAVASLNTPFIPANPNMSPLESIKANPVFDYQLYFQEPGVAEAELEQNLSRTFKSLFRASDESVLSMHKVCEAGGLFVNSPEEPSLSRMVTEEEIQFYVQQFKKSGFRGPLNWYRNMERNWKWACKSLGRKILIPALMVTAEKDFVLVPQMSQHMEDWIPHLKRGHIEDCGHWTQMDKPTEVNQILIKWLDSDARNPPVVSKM
Description: as §1, with “added.” for “added. To start the reaction, 5 μL of PHOME was added to each well at a final concentration of 0.25 mM. The microwell plate was shaken carefully for 10 s and covered with a plate cover.”
as §2, §3

[1] = Plasma protein binding (equilibrium dialysis), mouse; assay type: in vitro ADME; settings: for fraction unbound at 5 h, 1 μM: plasma (non-diluted), pH 7.4, read-out: Plasma Protein Binding Mouse % of Bound Comp (converted)
Description: The assay was performed in a multiple-use 96-well dialysis unit (HTD96b dialyzer). Each individual well unit consisted of 2 chambers separated by a vertically aligned dialysis membrane of predetermined pore size (MWCO 12–14 kDa). An amount of 120 μL of non-diluted plasma spiked with the compound (1 μM, final DMSO concentration 1%) was added to one chamber, and the same volume of PBS buffer with pH 7.4 was added to the other chamber. The HTD96b dialyzer was covered with adhesive sealing film and incubated at 37 °C and shaken at 100 rpm for 5 h. For sample preparation, an aliquot of the content of each chamber was mixed with the same volume of the blank opposite matrix. To define the non-specific loss of the compound during this assay, a standard solution was created by mixing an aliquot of spiked plasma with a blank buffer without dialysis. Two aliquots of the standard solution were incubated at 37 °C and shaken at 100 rpm for 5 h (recovery samples). The other two aliquots were immediately diluted with acetonitrile and stored at 4 °C until LC–MS/MS analysis (stability samples). All samples were diluted 5-fold with 100% methanol with subsequent plasma protein sedimentation by centrifuging at 6000 rpm for 5 min. Supernatants were analyzed using the HPLC system coupled with a tandem mass spectrometer.

SMILES	IC50 (mouse recombinant sEH) [nM]	Human sEH % Inhibition (human recombinant sEH) [%]	IC50 (human recombinant sEH) [nM]	compound recovery/stability in mouse plasma after 5 h incubation (%) [1] [%]	fraction unbound at 5 h, 1 μM [1]
O=C(NC12CC3CC(CC(C3)C1)C2)NS(=O)(=O)c1ccc2ccccc2c1 [Compound 4l]	190	96.79	1.21	88	0.02
O=C(NC12CC3CC(CC(C3)C1)C2)NS(=O)(=O)c1ccc(OC(F)(F)F)cc1 [Compound 4f]	290	96.05	1.69	106	0.02
